Test results published in article PMC12494543, “Identification of ALKBH6 as a nucleotide demethylase with a distinct substrate preference” (The Journal of Biological Chemistry, 2025).

What was measured:
ALKBH6 [1] = target: T1, ALKBH6 (Homo sapiens, UniProt Q3KRA9); test: FDH-coupled formaldehyde release demethylation assay; assay type: biochemical; details: me-dNMPs as substrate
T1 construct: His-tag; made in house
Protocol: NMPs including 1meAMP (Jena Bioscience, NU-1029-1,) 7meGMP (Jena Bioscience, NU-1135S), 6me-AMP (Sigma, M2780) were purchased. N-methylated deoxy-NMPs were prepared by methylating chemically synthesized 30-mer oligonucleotide containing either dA, dG, dC, or dT by MMS (5%, v/v) (0.59 M) MMS (Sigma, 129925) and purified as described before ([17]). The oligonucleotides were digested with nuclease P1 (NEB) at 37 °C for 4 h to produce deoxy-NMPs. After heat inactivating the nuclease, dNMPs were purified by HPLC and used for the demethylation reaction. N-methylated NMPs were purified similarly, using RNA as the starting material. For the demethylation reaction, ALKBH6 (1 μM) and me-dNMPs (1 mM) were mixed in the dioxygenase reaction buffer and incubated at 37 °C for 30 min. Formaldehyde release was detected by FDH-coupled DNA repair assay as described before ([32], [33]). Briefly, 1 mM NAD+ and 0.01 U FDH were added to the dioxygenase reaction buffer containing methylated nucleotide and ALKBH6. NADH generated was detected by the characteristic absorption peak (340 nm) using a 96-well multimode reader (Synergy, Biotek Instrument). Formaldehyde production was quantified from the standard curve and the initial velocities were determined using various substrate concentrations. The results were plotted and analyzed using GraphPad Prism.

ALKBH6 [2] = target: T1, ALKBH6; test: Uncoupled succinate production (SucCD colorimetric assay); assay type: biochemical; details: CoCl2 20 μM, no substrate
Protocol: The uncoupled succinate production reaction was set up in two steps as described before ([54]). In the initial step, WT ALKBH6 (5–20 μM) was incubated in dioxygenase reaction buffer (20 mM Hepes, pH 8.0, 0.2 mM 2OG, 2 mM ascorbate, 5 μM Fe(NH4)2(SO4)2) for 1 h at 37 °C to form succinate. Then the reaction mixture (50 μl) was mixed with recombinant sucCD (1 μM) in SucCD reaction buffer (2 mM MES, pH 6.5, 5 mM ATP 3.258 mM CoA, 50 mM MgCl2) and further incubated for 30 min at 37 °C. Finally, molybdate solution was added for colorimetric detection and the succinate concentration was detected from the standard curve. For inhibition, CoCl2 (20 μM) was used. The results were plotted and analyzed using GraphPad Prism (www.graphpad.com).

T1 sequence (Q3KRA9 whole entry): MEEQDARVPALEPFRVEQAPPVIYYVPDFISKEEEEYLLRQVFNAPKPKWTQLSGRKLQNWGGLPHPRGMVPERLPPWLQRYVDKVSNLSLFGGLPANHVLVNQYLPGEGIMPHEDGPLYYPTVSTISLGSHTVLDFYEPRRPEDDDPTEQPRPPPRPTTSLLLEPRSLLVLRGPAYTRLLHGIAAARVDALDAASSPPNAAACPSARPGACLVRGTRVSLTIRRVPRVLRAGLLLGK

[Cl][Co][Cl] [Co(II), cobalt chloride, reference compound]
inhibition of ALKBH6-mediated demethylation (ALKBH6 [1]): completely inhibited
inhibition of uncoupled succinate production (ALKBH6 [2]): inhibited
